The subject of data set [1] is HepG2. Briefly: Cytotoxicity against human HepG2 cells measured after 24 to 36 hrs by resazurin dye based fluorescence assay. Type of data set: cell-based.
In data set [2] the test system is Plasmodium falciparum. The data set can be described thus: Antimalarial activity against chloroquine-sensitive Plasmodium falciparum D6 infected in human erythrocytes by SYBR green 1-based fluorescence assay. It is filed as functional, organism-based.
Data set [3] has as its system Plasmodium falciparum. Briefly: Antimalarial activity against multidrug-resistant Plasmodium falciparum 7G8 infected in human erythrocytes by SYBR green 1-based fluorescence assay. Type of data set: functional, organism-based.
Data set [4] concerns Plasmodium falciparum. The data set can be described thus: Antimalarial activity against multidrug-resistant Plasmodium falciparum Dd2 infected in human erythrocytes by SYBR green 1-based fluorescence assay. Type of data set: functional, organism-based.
Data set [5] is described as follows: Selectivity index, ratio of IC50 for human HepG2 cells to IC50 for chloroquine-sensitive Plasmodium falciparum D6 infected in human erythrocytes. Type of data set: toxicity, cell-based. To be noted: read-out: Ratio IC50.
Data set [6] concerns Plasmodium falciparum. Briefly: Antimalarial activity against atovaquone-resistant Plasmodium falciparum Tm90-C2B infected in human erythrocytes by SYBR green 1-based fluorescence assay. It is filed as functional, organism-based.

Our source for the IC50 and selectivity ratio values is ChEMBL document CHEMBL4390668, “Discovery and Structural Optimization of Acridones as Broad-Spectrum Antimalarials” (J Med Chem, 2019).

Structures are written as SMILES. Some results are limits rather than exact numbers.

Regarding `CCN(CC)CCCOc1ccc2c(=O)c3c(F)cc(F)cc3[nH]c2c1`, the IC50 in data set [1] was 38600 nM; in data set [2] it was 32 nM; in data set [3], 44 nM; in data set [4] it was 7.8 nM; in data set [6], 705 nM. Moreover, the selectivity ratio in data set [5] is 1210.

Regarding `CCCN(CCC)CCOc1ccc2[nH]c3ccc(Cl)c(Cl)c3c(=O)c2c1`, the IC50 came to 12700 nM in data set [1]; 99 nM in data set [2]; 32 nM in data set [3]; 17 nM in data set [4]; 274 nM in data set [6]. Also, the selectivity ratio in data set [5] is 128.

In the case of `O=c1c2ccc(OCCCl)cc2[nH]c2cc(Cl)cc(Cl)c12`, the IC50 in data set [1] was above 100000 nM; in data set [2], 14 nM; in data set [3], 44 nM; in data set [4] it was 12 nM; in data set [6], 409 nM. Further, the selectivity ratio in data set [5] was above 7140.

Consider `CCN(CC)CCOc1ccc2c(=O)c3ccc(Cl)c(Cl)c3[nH]c2c1`, for which the IC50 is 46000 nM in data set [1]; 749 nM in data set [2]; above 2500 nM in data set [3]; 2440 nM in data set [4]; above 2500 nM in data set [6]. For the same molecule, the selectivity ratio in data set [5] is 61.

Consider `CCN(CC)CCOc1ccc2c(=O)c3c(Cl)ccc(Cl)c3[nH]c2c1`, for which the IC50 in data set [1] is 77000 nM; in data set [2], 506 nM; in data set [3], 848 nM; in data set [4], 1300 nM; in data set [6] it was above 2500 nM. In addition, the selectivity ratio in data set [5] was determined as 152.

On to `CC(C)(C)NCCCOc1ccc2c(=O)c3cc(Cl)ccc3[nH]c2c1`, for which the IC50 in data set [1] is 75200 nM; in data set [2], 674 nM; in data set [3], above 2500 nM; in data set [4], 1020 nM; in data set [6] it was 2140 nM. The selectivity ratio in data set [5] was found to be 112.

As for `CCN(CC)CCOc1ccc2c(=O)c3cc(F)c(F)cc3[nH]c2c1`, the IC50 in data set [1] was above 200000 nM; in data set [2] it was 146 nM; in data set [3] it was 110 nM; in data set [4] it was 187 nM; in data set [6] it was 270 nM. Also, the selectivity ratio in data set [5] is above 1370.

`CCN(CC)CCOc1ccc2c(=O)c3cc(F)c(OC)cc3[nH]c2c1`: the IC50 was above 200000 nM in data set [1]; 156 nM in data set [2]; 533 nM in data set [3]; 448 nM in data set [4]; 622 nM in data set [6]. The selectivity ratio in data set [5] is above 1280.

For `O=c1c2ccc(OCCCCl)cc2[nH]c2ccc(Cl)cc12`, the IC50 was above 100000 nM in data set [1]; 24 nM in data set [2]; 51 nM in data set [3]; 38 nM in data set [4]; 371 nM in data set [6]. In data set [5], the selectivity ratio was above 4170.

With `CCN(CC)CCOc1ccc2c(=O)c3ccc(C(F)(F)F)cc3[nH]c2c1`, the IC50 is 38600 nM in data set [1]; 816 nM in data set [2]; 1540 nM in data set [3]; 555 nM in data set [4]; 1390 nM in data set [6]. Moreover, the selectivity ratio in data set [5] turned out to be 47.

As for `CC(C)(C)NCCCOc1ccc2c(=O)c3c(Cl)c(Cl)ccc3[nH]c2c1`, the half-inhibitory concentration (IC50) in data set [1] is 24800 nM; in data set [2], 196 nM; in data set [3], 1630 nM; in data set [4], 1360 nM; in data set [6], above 2500 nM. Also, the selectivity ratio in data set [5] came to 127.

In the case of `CN(C)CCOc1ccc2c(=O)c3ccc(Cl)cc3[nH]c2c1`, the IC50 in data set [1] is 59000 nM; in data set [2] it was 56 nM; in data set [3], 70 nM; in data set [4], 63 nM; in data set [6], 563 nM. Besides, the selectivity ratio in data set [5] stood at 1050.

Take `O=c1c2ccc(OCCCl)cc2[nH]c2cc(F)cc(F)c12`: the IC50 in data set [1] is above 200000 nM; in data set [2] it was 5 nM; in data set [3], 22 nM; in data set [4] it was 7 nM; in data set [6], 46 nM. The selectivity ratio in data set [5] is above 40000.

Regarding `O=c1c2ccc(OCCCCl)cc2[nH]c2cc(Cl)c(Cl)cc12`, the IC50 was above 100000 nM in data set [1]; 179 nM in data set [2]; 2330 nM in data set [3]; 161 nM in data set [4]; 945 nM in data set [6]. Moreover, the selectivity ratio in data set [5] is above 558.

As for `CCN(CC)CCOc1ccc2c(=O)c3cc(Cl)cc(Cl)c3[nH]c2c1`, the IC50 in data set [1] is 35000 nM; in data set [2], 928 nM; in data set [3] it was 1290 nM; in data set [4], above 2500 nM; in data set [6], above 2500 nM. The selectivity ratio in data set [5] was found to be 38.

As for `CCCCNCCCOc1ccc2c(=O)c3c(Cl)cc(Cl)cc3[nH]c2c1`, the IC50 in data set [1] was found to be 11100 nM; in data set [2] it was 101 nM; in data set [3], 294 nM; in data set [4], 186 nM; in data set [6], 82 nM. Further, the selectivity ratio in data set [5] is 110.
